Source: article PMC11520566, “Discovery of pyrazole-based analogs as CDK2 inhibitors with apoptotic-inducing activity: design, synthesis and molecular dynamics study” (RSC Advances, 2024)

Legend:
Format in all cases: cell-based, human
RPMI-8226 = test: NCI 60 five dose assay, Leukemia
HOP-62 = test: NCI 60 five dose assay, Non-small cell lung cancer
LOX IMVI = test: NCI 60 five dose assay, Melanoma
MALME-3M = test: NCI 60 five dose assay, Melanoma; conditions: for Percent Growth: MALME-3M
SN12C = test: NCI 60 five dose assay, Renal cancer
BT-549 = test: NCI 60 five dose assay, Breast cancer
HCT-116 = test: NCI 60 single dose screen, Colon cancer; conditions: single dose 10 μM
Experimental: (§1) The newly synthesized pyrazoles 2a–g, 7a–d, 8a and b, 9, and 10 were submitted to the National Cancer Institute (NCI) Developmental Therapeutics Program (http://www.dtp.nci.nih.gov) for assessment of their potential antiproliferative activity against a panel of NCI 60 cancer cell lines. All compounds were approved for screening against the approved 60 cancer cell lines at a single dose of 10 μM. The human cancer cell lines were derived from 9 variant cancer types including leukemia, melanoma, lung, colon, CNS, ovarian, renal, prostate and breast cancers. The results are presented as percentage of growth inhibition (GI%) of the screened compounds against the full panel of cell lines.
(§2) Under sterile conditions, the cell lines were grown in RPMI 1640 media (Gibco, NY, USA) supplemented with 10% fetal bovine serum (Biocell, CA, USA), and […] cell/mL was used to test the growth inhibition activity of the synthesized compounds. The compounds with concentrations ranging from 0.01 to 100 μM were prepared in phosphate buffer saline. Each compound was initially solubilized in dimethyl sulfoxide (DMSO); however, each final dilution contained less than 1% DMSO. Solutions of different concentrations (0.2 mL) were pipetted into the separate well of a microtiter tray in duplicate. Cell culture (1.8 mL) containing a cell population of […] cells per mL was pipetted into each well. Controls, containing only phosphate buffer saline and DMSO at identical dilutions, were also prepared in the same manner. These cultures were incubated in a humidified incubator at 37 °C. The incubator was supplied with 5% CO2 atmosphere. After 48 h, the cells in each well were diluted 10 times with saline and counted using a Coulter counter. The counts were corrected for the dilution.[34]

KM12 = test: NCI 60 single dose screen, Colon cancer; conditions: single dose 10 μM
Experimental: as §1, §2

[1] = Homo sapiens, read-out: LC50 (the source's name)

Compound: CC(=NNc1ccc(S(N)(=O)=O)cc1)c1ccc(NN=C2C(=O)NN=C2Nc2ccccc2)cc1 [Compound 4, 4-(2-(1-(4-(2-(5-oxo-3-(phenylamino)-1,5-dihydro-4H-pyrazol-4-ylidene)hydrazinyl)phenyl)ethylidene)hydrazinyl)benzene sulfonamide]
- GI50 (RPMI-8226; Homo sapiens): 3.36 µM
- CC50 (RPMI-8226; [1]): > 100 µM
- Percent Growth (RPMI-8226; Log10 Concentration -4.0 Molar): -15%
- Percent Growth (RPMI-8226; Log10 Concentration -5.0 Molar): 12%
- Percent Growth (RPMI-8226; Log10 Concentration -6.0 Molar): 92%
- Percent Growth (RPMI-8226; Log10 Concentration -7.0 Molar): 101%
- Percent Growth (RPMI-8226; Log10 Concentration -8.0 Molar): 101%
- GI50 (HOP-62; Homo sapiens): 2.05 µM
- CC50 (HOP-62; [1]): 30.3 µM
- Percent Growth (HOP-62; Log10 Concentration -4.0 Molar): -78%
- Percent Growth (HOP-62; Log10 Concentration -5.0 Molar): -24%
- Percent Growth (HOP-62; Log10 Concentration -6.0 Molar): 84%
- Percent Growth (HOP-62; Log10 Concentration -7.0 Molar): 95%
- Percent Growth (HOP-62; Log10 Concentration -8.0 Molar): 91%
- GI50 (LOX IMVI; Homo sapiens): 2.13 µM
- CC50 (LOX IMVI; [1]): 8.81 µM
- Percent Growth (LOX IMVI; Log10 Concentration -4.0 Molar): -100%
- Percent Growth (LOX IMVI; Log10 Concentration -5.0 Molar): -59%
- Percent Growth (LOX IMVI; Log10 Concentration -6.0 Molar): 103%
- Percent Growth (LOX IMVI; Log10 Concentration -7.0 Molar): 102%
- Percent Growth (LOX IMVI; Log10 Concentration -8.0 Molar): 98%
- GI50 (MALME-3M; Homo sapiens, Malme-3M): 1.98 µM
- CC50 (MALME-3M; Homo sapiens, Malme-3M, read-out: LC50 (the source's name)): 7.49 µM
- Percent Growth (MALME-3M; Log10 Concentration -4.0 Molar): -100%
- Percent Growth (MALME-3M; Log10 Concentration -5.0 Molar): -72%
- Percent Growth (MALME-3M; Log10 Concentration -6.0 Molar): 102%
- Percent Growth (MALME-3M; Log10 Concentration -7.0 Molar): 97%
- Percent Growth (MALME-3M; Log10 Concentration -8.0 Molar): 89%
- GI50 (SN12C; Homo sapiens): 2.38 µM
- CC50 (SN12C; [1]): 23.5 µM
- Percent Growth (SN12C; Log10 Concentration -4.0 Molar): -100%
- Percent Growth (SN12C; Log10 Concentration -5.0 Molar): -21%
- Percent Growth (SN12C; Log10 Concentration -6.0 Molar): 93%
- Percent Growth (SN12C; Log10 Concentration -7.0 Molar): 92%
- Percent Growth (SN12C; Log10 Concentration -8.0 Molar): 95%
- GI50 (BT-549; Homo sapiens): 2.83 µM
- CC50 (BT-549; [1]): 31.1 µM
- Percent Growth (BT-549; Log10 Concentration -4.0 Molar): -100%
- Percent Growth (BT-549; Log10 Concentration -5.0 Molar): -1%
- Percent Growth (BT-549; Log10 Concentration -6.0 Molar): 92%
- Percent Growth (BT-549; Log10 Concentration -7.0 Molar): 105%
- Percent Growth (BT-549; Log10 Concentration -8.0 Molar): 94%
- GI% (HCT-116): 99.70%
- GI% (KM12): 96.31%
